The values that follow come from ChEMBL document CHEMBL4610120, “New Broad-Spectrum Antibiotics Containing a Pyrrolobenzodiazepine Ring with Activity against Multidrug-Resistant Gram-Negative Bacteria” (J Med Chem, 2020).

Broadly, the MIC is the least concentration at which growth counts as inhibited.

In test [1] the test system is Klebsiella pneumoniae. In words: Ratio of MIC for multidrug-resistant Klebsiella pneumoniae NCTC 13368-7-R1 measured after 10 passages to MIC for multidrug-resistant Klebsiella pneumoniae NCTC 13368-7-R1 measured after 10 passages in presence of efflux pump inhibitor PAbetaN. Format: functional.
The subject of test [2] is Acinetobacter baumannii. Put plainly: Antimicrobial activity against multidrug-resistant Acinetobacter baumannii UKA7 by microdilution broth method. Type of test: functional. On the technique in general: In broth dilution the organism is exposed to a series of concentrations in liquid medium.
Test [3] concerns Klebsiella pneumoniae. Put plainly: Bactericidal activity against multidrug-resistant Klebsiella pneumoniae NCTC 13438 assessed as reduction in viable bacterial count at 4 times MIC measured up to 24 hrs by Miles-Misra dilution method based time-kill assay. Type of test: functional, organism-based.
Test [4] relates to Acinetobacter baumannii. Put plainly: Bactericidal activity against Acinetobacter baumannii NCTC 13424 assessed as reduction in viable bacterial count at 4 times MIC measured up to 24 hrs by Miles-Misra dilution method based time-kill assay. Format: functional, organism-based.
Test [5] relates to Klebsiella pneumoniae. Put plainly: Antibacterial activity against multidrug-resistant Klebsiella pneumoniae NCTC 13368-7-R2 measured after 10 passages in presence of membrane permeabilizer PMBN by microdilution broth method. Type of test: functional.

In brackets after ≈: the same amount, converted by molar mass. Activity calls are given as the source filed them. No cut-off for these calls is given here.

As to `COc1cc2c(cc1OCCCC(=O)Nc1cc(C(=O)Nc3ccc4oc(C(=O)N5CCSCC5)cc4c3)n(C)c1)N=C[C@@H]1CCCN1C2=O`, in the test with Klebsiella pneumoniae [1], the Ratio stood at 4. The MIC against Acinetobacter baumannii [2] amounted to 4 µg/mL (≈ 5.72 µM); in the test with Klebsiella pneumoniae [5], 64 µg/mL. Also, the result in the test on Klebsiella pneumoniae [3] and with Acinetobacter baumannii [4] was Active.
